Measurements from article PMC6201103, “The Small-Compound Inhibitor K22 Displays Broad Antiviral Activity against Different Members of the Family Flaviviridae and Offers Potential as a Panviral Inhibitor” (Antimicrobial Agents and Chemotherapy, 2018).

Assays:
[1] = system: ZIKV; assay: Combination treatment, ZIKV titers (TCID50) in Vero B4 cells; settings: 24 h p.i., Vero B4 cells
[2] = system: Vero B4 cells; assay: Proliferation/viability, MultiTox-Fluor multiplex cytotoxicity assay on Vero B4 cells; format: cell-based
Method: To evaluate the effect of K22 on cell viability, proliferation, as well as cytotoxicity, uninfected cells were treated with the compound at the concentrations specified above or with DMSO as a control. To determine the effect of K22 on cell viability, Vero cells were collected and labeled with the Fixable Aqua dead cell stain kit (Thermo Fisher Scientific) for 30 min on ice, before the cells were washed with cold PBS and fixed for flow cytometry analysis. As a positive control for cell death, cells were heated at 65°C for 30 min. The mean fluorescence intensity (MFI) was determined by flow cytometry analysis on a FACSCanto II flow cytometer (BD Bioscience) and evaluated using FlowJo (v.9.1) software. […] The compound was added at the concentrations indicated above, and cytotoxicity was determined at 24 and/or 48 h p.i. by determination of the absorbance at 490 nm using a plate reader (VersaMax [Molecular Devices, Wokingham, UK] or an EnSpire 2300 multilabel reader [PerkinElmer, Schwerzenbach, Switzerland]). Cell proliferation following compound treatment was determined using a MultiTox-Fluor multiplex cytotoxicity assay (catalog number G9200; Promega) according to the manufacturer's recommendations. The readout was performed using a multilabel reader (EnSpire 2300 multilabel reader; PerkinElmer) upon excitation at ∼400 nm and emission at ∼505 nm. […]

Row | Compound | effect of single treatment on ZIKV viral titers ([1]; 10 μg/ml RBV) | effect of single treatment on ZIKV viral titers ([1]; 100 μg/ml and 1,000 μg/ml RBV) | effect of IFN-α on cell viability [2] | IFN-α doses effective against ZIKV ([1]; single treatment) [IU]
1 | NC(=O)c1ncn([C@@H]2O[C@H](CO)[C@@H](O)[C@H]2O)n1 [RBV, ribavirin, reference compound] | moderately reduced the viral titers | significantly reduced viral titers | – | –
2 | IFN-α | – | – | no effect on cell viability | ≥ 10
